Our source for the IC50 values is ChEMBL document CHEMBL1158059, “Oculatol, oculatolide, and A-nor sterols from the sponge Haliclona oculata” (J Nat Prod, 2006).

Values after ≈ are worked out from the molar mass of the structure shown.

Assay [1] concerns the target T1, Tyrosine-protein phosphatase non-receptor type 1 (Homo sapiens, UniProt P18031).
T1 sequence (P18031 whole entry): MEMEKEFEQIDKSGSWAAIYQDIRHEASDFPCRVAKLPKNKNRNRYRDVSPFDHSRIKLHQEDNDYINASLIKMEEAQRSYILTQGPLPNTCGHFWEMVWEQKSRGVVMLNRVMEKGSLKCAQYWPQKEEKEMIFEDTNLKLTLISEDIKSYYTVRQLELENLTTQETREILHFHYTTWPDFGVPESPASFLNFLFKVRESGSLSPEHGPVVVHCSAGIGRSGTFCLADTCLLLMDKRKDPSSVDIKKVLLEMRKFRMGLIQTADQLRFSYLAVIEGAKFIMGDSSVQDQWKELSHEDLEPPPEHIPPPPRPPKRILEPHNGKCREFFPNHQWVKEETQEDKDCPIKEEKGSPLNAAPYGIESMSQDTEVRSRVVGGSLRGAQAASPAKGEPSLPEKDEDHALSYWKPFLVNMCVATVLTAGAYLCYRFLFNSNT
Description: Inhibition of PTP1B.

Another assay has as its target Acetylcholinesterase (Homo sapiens, UniProt P22303). Description: Inhibition of AChE.
Assay [2] concerns the target T2, Prostaglandin G/H synthase 2 (Homo sapiens, UniProt P35354).
T2 sequence (P35354 whole entry): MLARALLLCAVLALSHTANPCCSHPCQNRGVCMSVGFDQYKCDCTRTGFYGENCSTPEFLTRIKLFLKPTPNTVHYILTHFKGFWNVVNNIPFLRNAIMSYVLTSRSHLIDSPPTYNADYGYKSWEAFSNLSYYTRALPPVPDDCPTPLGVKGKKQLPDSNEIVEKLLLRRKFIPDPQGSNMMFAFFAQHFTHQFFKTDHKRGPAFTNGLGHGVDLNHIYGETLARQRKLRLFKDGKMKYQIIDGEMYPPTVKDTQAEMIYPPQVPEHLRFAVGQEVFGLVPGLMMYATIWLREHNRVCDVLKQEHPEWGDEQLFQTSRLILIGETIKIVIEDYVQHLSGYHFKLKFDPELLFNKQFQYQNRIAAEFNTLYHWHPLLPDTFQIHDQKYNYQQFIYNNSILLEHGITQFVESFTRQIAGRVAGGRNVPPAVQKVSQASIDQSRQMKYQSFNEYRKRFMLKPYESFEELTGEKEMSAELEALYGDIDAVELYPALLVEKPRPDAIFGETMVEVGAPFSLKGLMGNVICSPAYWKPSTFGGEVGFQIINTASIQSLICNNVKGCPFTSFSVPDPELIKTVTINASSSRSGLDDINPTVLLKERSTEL
Description: Inhibition of COX2.

The next assay deals with HL-60. Description: Cytotoxicity against human HL-60 cells. In kind it is functional, cell-based.
Another assay has as its system A549. Description: Cytotoxicity against human A549 cells. In kind it is functional, cell-based.
A further assay relates to Bel-7402. Description: Cytotoxicity against human Bel-7402 cells. The format is functional, cell-based.
The subject of the next assay is HeLa. Description: Cytotoxicity against human HeLa cells. In kind it is functional, cell-based.

Acetylcholinesterase, sequence (P22303 whole entry): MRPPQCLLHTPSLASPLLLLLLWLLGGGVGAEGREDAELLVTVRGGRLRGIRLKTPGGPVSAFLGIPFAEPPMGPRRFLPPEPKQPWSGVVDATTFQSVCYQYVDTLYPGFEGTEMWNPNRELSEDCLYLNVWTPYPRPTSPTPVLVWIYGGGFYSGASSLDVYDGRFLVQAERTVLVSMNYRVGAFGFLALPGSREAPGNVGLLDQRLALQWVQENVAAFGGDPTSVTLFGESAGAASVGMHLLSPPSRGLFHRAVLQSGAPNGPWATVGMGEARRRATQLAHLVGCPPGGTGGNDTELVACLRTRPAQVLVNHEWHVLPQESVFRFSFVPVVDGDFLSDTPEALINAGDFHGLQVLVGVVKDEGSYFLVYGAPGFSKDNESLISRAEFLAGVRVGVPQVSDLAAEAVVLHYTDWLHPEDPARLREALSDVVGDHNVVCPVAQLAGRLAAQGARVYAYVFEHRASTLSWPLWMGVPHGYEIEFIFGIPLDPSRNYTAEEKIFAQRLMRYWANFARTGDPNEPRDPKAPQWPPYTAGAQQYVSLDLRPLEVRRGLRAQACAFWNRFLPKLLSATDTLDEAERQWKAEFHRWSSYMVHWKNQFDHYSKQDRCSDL

In the case of `C=C(CC[C@@H](C)[C@H]1CC[C@H]2[C@@H]3CC=C4C(=O)[C@](O)(C(=O)OCC)C[C@]4(C)[C@H]3CC[C@]12C)C(C)C`, the IC50 – broadly, the concentration at which inhibition is half-maximal – in assay [1] is over 21.2 µM; against Acetylcholinesterase, over 21.2 µM; in assay [2], over 21.2 µM; in the assay on HL-60 it was 0.32 µg/mL (≈ 0.68 µM); with A549, 0.47 µg/mL (≈ 0.999 µM); in the assay with Bel-7402, 0.73 µg/mL (≈ 1.55 µM). The compound also showed an IC50 with HeLa of over 10 µg/mL.
